Assay results as given in US20250302751A1, “FORMULATIONS FOR ADM[…], norLAAM AND dinorLAAM AND METHODS OF THEIR USE TO TREAT OPIOID USE DISORDER” (VIRGINIA COMMONWEALTH UNIVERSITY, priority 2022, published 2025).
Where two headings read alike, the source gives them in different places.

Experiments:
[1] = Plasma pharmacokinetics of LAAM in rabbits (intravenous, oral, buccal); settings: rabbit
Protocol: Twenty-four New Zealand white rabbits of mixed gender (weighing 3.6-4.0 kg) were obtained from ENVIGO and used in this study. […] All animal protocols were approved by the Institutional Animal Care and Use Committee at the Virginia Commonwealth University. […] Rabbits were anesthetized following an intramuscular injection of ketamine (50 mg/kg) and xylazine (5-7 mg/kg), followed by applying buccal films (1 mg/kg) into the buccal pouch. […] An oral solution (1 mg/kg) was administered by an oral syringe (1 mL), followed by an injection of ketamine/xylazine. After anesthesia, a catheter was inserted via the marginal ear vein for blood collection before dosing and at pre-determined time points (30 min before and at 5, 15, 30 min, and 1, 2, 3, 4, 8, 12, 24, 48, 72, 96, and 120 h) following administration. Eppendorf tubes contained EDTA (0.5 M) to prevent blood coagulation. Blood samples were placed on ice immediately following the collection for no longer than 5 min, plasma was separated by centrifugation (3000 g, at 0° C. for 3 min) and stored at −80° C. until analysis. At the endpoint (120 h), all animals were sacrificed. Urine, interest tissues (buccal mucosa, kidney, spleen, liver, gallbladder, muscle, brain, and spinal cord, mesenteric fat, perirenal fat, neck fat, inguinal fat) were harvested and stored at −80° C. until analysis. The buccal mucosa tissues and control in contact with fiber film formulations were collected for histopathological analysis using H&E staining. […] Non-compartmental analysis (NCA) was applied to calculate pharmacokinetic parameters derived from plasma concentration-time profiles. The absolute bioavailability was subsequently calculated by comparing respective AUCs, as shown by the following equation: […]

[2] = humans; cited from earlier work
[3] = weak base; cited from earlier work
[4] = rats; cited from earlier work
[5] = high permeability according to the FDA; cited from earlier work
[6] = both, New Zealand white, plasma, iv, 0.8 mg/kg
[7] = both, New Zealand white, plasma, po, 1 mg/kg

| Structure (SMILES) | AUC(0-inf) [1, 6] | AUC(0-t) [1, 6] | C0 [1, 6] | Vd [1, 6] | clearance [1, 6] | AUC(0-inf) [1, 7] | AUC(0-t) [1, 7] | Cmax [1, 7] | Tmax [1, 7] | LAAM F (%), bioavailability, calculated by AUCinf ([1]; LAAM oral solution 1 mg/kg) | Oral bioavailability (Foral %) [2] | pKa [3] | Oral bioavailability (Foral %) [4] | Permeability of model drug [5] |
| --- | --- | --- | --- | --- | --- | --- | --- | --- | --- | --- | --- | --- | --- | --- |
| CC[C@H](OC(C)=O)C(C[C@H](C)N(C)C)(c1ccccc1)c1ccccc1 [LAAM, [(3S,6S)-6-(dimethylamino)-4,4-diphenylheptan-3-yl]acetate] | 284 ± 94.7 ng·h/mL | 274 ± 91.6 ng·h/mL | 288 ± 133 ng/mL | 30.6 ± 6.3 L/kg | 51.7 mL/min/kg | 69.5 ± 10 ng·h/mL | 65.7 ± 10.1 ng·h/mL | 20.7 ± 3.4 ng/mL | 24 ± 12 min | 19.6 ± 2.8% | approximately 50% | 9.87 | ~60% |  |
| COCCc1ccc(OCC(O)CNC(C)C)cc1 (centres unmarked) [metoprolol] |  |  |  |  |  |  |  |  |  |  |  |  |  | 11 ×10⁻⁶ cm/s |
